Earlier results in patent US20240066056A1, “Formulations of a Prophylactic Nasal Spray and Methods of Use and Manufacture Thereof” (priority 2020, published 2024).

Legend:
SARS-CoV-2 = details: within 30 seconds of contact
bacteria = details: after an application of povidone-iodine
[1] = cold and mild-warm water and alcohol

Povidone-iodine [PVP-I]
virus killed (in vitro virucidal activity) (SARS-CoV-2): 99.99% | duration of bactericidal action after application (bacteria): up to eight | solubility [1]: soluble in cold and mild-warm water and alcohol
